Data taken from PMC11413682 (Acta Pharmaceutica Sinica. B, 2024).
Like-named read-outs stand apart in the source and are kept apart here. Residues, ends and D or L forms follow the SMILES beside them. No end group written: not given here.

Biological target: T1, CUL2^ZYG11B (residues 490–728) (Homo sapiens, UniProt Q9C0D3)
T1 construct: PCR was used to amplify CUL2^ZYG11B (residues 490–728); 6×His-SUMO (TEV-cleavable) (N, cleaved yes); made in house; host or cells: E. coli
Assay: ITC binding of ORF10 NTE synthetic peptides to CUL2^ZYG11B

[1] = figure panels, […], repeated 3 times, read-out: Kd

T1 sequence (Q9C0D3 490-728): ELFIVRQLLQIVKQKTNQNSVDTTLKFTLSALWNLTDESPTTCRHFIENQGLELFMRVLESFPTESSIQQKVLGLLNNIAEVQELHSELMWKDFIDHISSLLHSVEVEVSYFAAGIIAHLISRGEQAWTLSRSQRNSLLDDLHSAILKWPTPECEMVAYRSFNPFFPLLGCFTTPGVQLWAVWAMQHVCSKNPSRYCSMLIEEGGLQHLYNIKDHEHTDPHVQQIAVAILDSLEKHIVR

SYINV [SARS-2 ORF10 N5-G1S] showed a Kd of 13.2 µM.

With “GFWCR [SNX11-degron-5, reference compound]” the Kd (Table S4, ITC, MicroCal iTC200, peptide 0.5–1 mmol/L in syringe, protein 0.03 mmol/L in cell, 18 x 2 μL injections, repeated 3 times, Kd calculated as 1/Ka, read-out: Kd) was 0.4 µM.

Work on GAINV [SARS-2 ORF10 N5-Y2A] yielded a Kd [1] of 25.2 µM.

CC[C@H](C)[C@H](NC(=O)[C@H](Cc1ccc(O)cc1)NC(=O)CN)C(=O)O [SARS-2 ORF10 N3] (H-Gly-Tyr-Ile-OH) was tested, and the Kd [1] was 14.5 µM.

NCC(=O)N[C@@H](Cc1ccc(O)cc1)C(=O)O [SARS-2 ORF10 N2] (H-Gly-Tyr-OH; N-terminus and C-terminus assumed) was tested, and the Kd was greater than 200 µM, the “binding to CUL2^ZYG11B (in words)” value (ITC) was “did not bind” and the “N, stoichiometry” value (Table S4, ITC) was 5.05. The “ΔS, entropy variation” value (Table S4, ITC) was 6.52 cal/mole/deg.

Work on CC[C@H](C)[C@H](NC(=O)[C@H](Cc1ccc(O)cc1)NC(=O)CN)C(=O)N[C@@H](CC(N)=O)C(=O)O [SARS-2 ORF10 N4] (H-GYIN-OH) yielded a Kd [1] of 5.18 µM.

With “GPINV [SARS-2 ORF10 N5-Y2P, altered peptide derived from SARS-CoV-2 ORF10 N5, Y2P]” the “binding to CUL2^ZYG11B (in words)” value (ITC) was “disrupted binding completely”.
